Source: patent US20210122730A1, “GLUCOCORTICOID RECEPTOR MODULATORS” (ORIC Pharmaceuticals, Inc., priority 2017, published 2021)

biological target: T1, GR (Homo sapiens, UniProt P04150); assay: In Vitro GR Luciferase Reporter Assay (antagonist mode, CHO-K1-GR-MMTV-Luc reporter cells); type: cell-based; conditions: antagonist mode, 10 nM Dexamethasone
T1 construct: expressed in transfected cells; host or cells: CHO-K1
T1 sequence (P04150 1-777): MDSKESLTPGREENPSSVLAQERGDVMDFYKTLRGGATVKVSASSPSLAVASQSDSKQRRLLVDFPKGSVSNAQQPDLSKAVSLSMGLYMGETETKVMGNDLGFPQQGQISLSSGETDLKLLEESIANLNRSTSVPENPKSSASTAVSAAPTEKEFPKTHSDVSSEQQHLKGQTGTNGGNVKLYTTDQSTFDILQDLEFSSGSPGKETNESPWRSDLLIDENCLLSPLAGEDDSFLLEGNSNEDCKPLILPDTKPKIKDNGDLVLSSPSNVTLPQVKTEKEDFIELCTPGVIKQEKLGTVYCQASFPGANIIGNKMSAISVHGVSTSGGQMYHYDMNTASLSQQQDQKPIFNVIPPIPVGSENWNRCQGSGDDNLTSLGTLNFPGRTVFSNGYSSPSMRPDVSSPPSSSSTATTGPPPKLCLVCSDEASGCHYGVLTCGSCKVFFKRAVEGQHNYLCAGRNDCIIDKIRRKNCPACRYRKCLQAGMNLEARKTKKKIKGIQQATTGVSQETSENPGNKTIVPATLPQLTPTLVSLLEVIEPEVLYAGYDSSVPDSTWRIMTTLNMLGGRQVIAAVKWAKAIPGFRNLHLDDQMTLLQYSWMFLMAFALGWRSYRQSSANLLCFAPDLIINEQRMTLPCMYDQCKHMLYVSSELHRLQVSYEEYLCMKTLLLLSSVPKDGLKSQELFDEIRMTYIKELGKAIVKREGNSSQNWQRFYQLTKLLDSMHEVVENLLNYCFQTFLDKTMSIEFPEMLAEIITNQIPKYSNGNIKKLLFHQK
Summary of the method: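 Antagonist mode: compounds (8 serial 1:5 dilutions) added to GR-MMTV-luciferase CHO-K1 reporter cells co-exposed to 10 nM dexamethasone final, in phenol red-free DMEM plus 10% CSS. After roughly 18-24 h at 37° C, OneGlo luminescence read and IC50 calculated.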

IC50, ≤ 100 nM:
Cn1ccc(S(=O)(=O)CC2CCC3=Cc4c(cnn4-c4ccc(F)cc4)C[C@]3(C(=O)c3cc(F)ccn3)C2)n1 (stereo partly drawn) [Example 362, ((4aR)-1-(4-fluorophenyl)-6-(((1-methyl-1H-pyrazol-3-yl)sulfonyl)methyl)-1,4,5,6,7,8-hexahydro-4aH-benzo[f]indazol-4a-yl)(4-fluoropyridin-2-yl)methanone]
Cn1ccc(S(=O)(=O)CC2CCC3=Cc4c(cnn4-c4ccc(F)cc4)C[C@]3(C(=O)c3cc(Cl)ccn3)C2)n1 (stereo partly drawn) [Example 364, (4-chloropyridin-2-yl)((4aR)-1-(4-fluorophenyl)-6-(((1-methyl-1H-pyrazol-3-yl)sulfonyl)methyl)-1,4,5,6,7,8-hexahydro-4aH-benzo[f]indazol-4a-yl)methanone]
Cn1cnc(S(=O)(=O)[C@H]2CCC3=Cc4c(cnn4-c4ccc(F)cc4)C[C@]3(C(=O)c3cc(C(F)(F)F)ccn3)C2)n1 [Example 365, ((4aS,6S)-1-(4-fluorophenyl)-6-((1-methyl-1H-1,2,4-triazol-3-yl)sulfonyl)-1,4,5,6,7,8-hexahydro-4aH-benzo[f]indazol-4a-yl)(4-(trifluoromethyl)pyridin-2-yl)methanone]
Cn1ccc(S(=O)(=O)N([C@H]2CCC3=Cc4c(cnn4-c4ccc(F)cc4)C[C@]3(C(=O)c3cc(C(F)(F)F)ccn3)C2)[C@H]2C[C@@](O)(C(F)(F)F)C2)n1 [Example 369, N-((4aS,6S)-1-(4-fluorophenyl)-4a-(4-(trifluoromethyl)picolinoyl)-4,4a,5,6,7,8-hexahydro-1H-benzo[f]indazol-6-yl)-N-((1r,3S)-3-hydroxy-3-(trifluoromethyl)cyclobutyl)-1-methyl-1H-pyrazole-3-sulfonamide]
O=C(c1cc(Cl)ccn1)[C@]12Cc3cnn(-c4ccc(F)cc4)c3C=C1CC[C@H](N(C1CC(F)(F)C1)S(=O)(=O)c1ccc(Cl)nc1)C2 [Example 370, 6-chloro-N-((4aS,6S)-4a-(4-chloropicolinoyl)-1-(4-fluorophenyl)-4,4a,5,6,7,8-hexahydro-1H-benzo[f]indazol-6-yl)-N-(3,3-difluorocyclobutyl)pyridine-3-sulfonamide]
COCCN([C@H]1CCC2=Cc3c(cnn3-c3ccc(F)cc3)C[C@]2(C(=O)c2ncc(C(F)(F)F)s2)C1)S(=O)(=O)c1ccc(F)cc1 [Example 372, 4-fluoro-N-((4aS,6S)-1-(4-fluorophenyl)-4a-(5-(trifluoromethyl)thiazole-2-carbonyl)-4,4a,5,6,7,8-hexahydro-1H-benzo[f]indazol-6-yl)-N-(2-methoxyethyl)benzenesulfon-amide]
Cn1cc(S(=O)(=O)CC2CCC3=Cc4c(cnn4-c4ccc(F)cc4)C[C@]3(C(=O)c3ncc(C(F)(F)F)s3)C2)cn1 (stereo partly drawn) [Example 375, ((4aR)-1-(4-fluorophenyl)-6-(((1-methyl-1H-pyrazol-4-yl)sulfonyl)methyl)-1,4,5,6,7,8-hexahydro-4aH-benzo[f]indazol-4a-yl)(5-(trifluoromethyl)thiazol-2-yl)methanone]
CCN([C@H]1CCC2=Cc3c(cnn3-c3ccc(F)cc3)C[C@]2(C(=O)c2ncc(C(F)(F)F)s2)C1)S(=O)(=O)c1cncn1C [Example 376, N-ethyl-N-((4aS,6S)-1-(4-fluorophenyl)-4a-(5-(trifluoromethyl)thiazole-2-carbonyl)-4,4a,5,6,7,8-hexahydro-1H-benzo[f]indazol-6-yl)-1-methyl-1H-imidazole-5-sulfonamide]
Cn1cnc(S(=O)(=O)N(CC(F)(F)F)[C@H]2CCC3=Cc4c(cnn4-c4ccc(F)cc4)C[C@]3(C(=O)c3cc(C(F)(F)F)ccn3)C2)n1 [Example 378, N-((4aS,6S)-1-(4-fluorophenyl)-4a-(4-(trifluoromethyl)picolinoyl)-4,4a,5,6,7,8-hexahydro-1H-benzo[f]indazol-6-yl)-1-methyl-N-(2,2,2-trifluoroethyl)-1H-1,2,4-triazole-3-sulfonamide]
Cn1cnc(S(=O)(=O)CC2CCC3=Cc4c(cnn4-c4ccc(F)cc4)C[C@]3(C(=O)c3ncc(C(F)(F)F)s3)C2)n1 (stereo partly drawn) [Example 379, ((4aR)-1-(4-fluorophenyl)-6-(((1-methyl-1H-1,2,4-triazol-3-yl)sulfonyl)methyl)-1,4,5,6,7,8-hexahydro-4aH-benzo[f]indazol-4a-yl)(5-(trifluoromethyl)thiazol-2-yl)methanone]
Cn1ccc(S(=O)(=O)N(CCF)[C@H]2CCC3=Cc4c(cnn4-c4ccc(F)cc4)C[C@]3(C(=O)c3cc(C(F)(F)F)ccn3)C2)n1 [Example 380, N-(2-fluoroethyl)-N-((4aS,6S)-1-(4-fluorophenyl)-4a-(4-(trifluoromethyl)picolinoyl)-4,4a,5,6,7,8-hexahydro-1H-benzo[f]indazol-6-yl)-1-methyl-1H-pyrazole-3-sulfonamide]
CO[C@]1(C)C[C@H](N([C@H]2CCC3=Cc4c(cnn4-c4ccc(F)cc4)C[C@]3(C(=O)c3cc(Cl)ccn3)C2)S(=O)(=O)c2ccn(C)n2)C1 [Example 381, N-((4aS,6S)-4a-(4-chloropicolinoyl)-1-(4-fluorophenyl)-4,4a,5,6,7,8-hexahydro-1H-benzo[f]indazol-6-yl)-N-((1s,3R)-3-methoxy-3-methylcyclobutyl)-1-methyl-1H-pyrazole-3-sulfonamide]
Cn1cnc(S(=O)(=O)N(CCF)[C@H]2CCC3=Cc4c(cnn4-c4ccc(F)cc4)C[C@]3(C(=O)c3ncc(C(F)(F)F)s3)C2)n1 [Example 382, N-(2-fluoroethyl)-N-((4aS,6S)-1-(4-fluorophenyl)-4a-(5-(trifluoromethyl)thiazole-2-carbonyl)-4,4a,5,6,7,8-hexahydro-1H-benzo[f]indazol-6-yl)-1-methyl-1H-1,2,4-triazole-3-sulfonamide]
Cn1cnc(S(=O)(=O)N(CC(F)F)[C@H]2CCC3=Cc4c(cnn4-c4ccc(F)cc4)C[C@]3(C(=O)c3ncc(C(F)(F)F)s3)C2)c1 [Example 383, N-(2,2-difluoroethyl)-N-((4aS,6S)-1-(4-fluorophenyl)-4a-(5-(trifluoromethyl)thiazole-2-carbonyl)-4,4a,5,6,7,8-hexahydro-1H-benzo[f]indazol-6-yl)-1-methyl-1H-imidazole-4-sulfonamide]
CO[C@]1(C)C[C@H](N([C@H]2CCC3=Cc4c(cnn4-c4ccc(F)cc4)C[C@]3(C(=O)c3cc(C(F)(F)F)ccn3)C2)S(=O)(=O)c2ccn(C)n2)C1 [Example 384, N-((4aS,6S)-1-(4-fluorophenyl)-4a-(4-(trifluoromethyl)picolinoyl)-4,4a,5,6,7,8-hexahydro-1H-benzo[f]indazol-6-yl)-N-((1s,3R)-3-methoxy-3-methylcyclobutyl)-1-methyl-1H-pyrazole-3-sulfonamide]
Cn1cnc(S(=O)(=O)N(CCF)[C@H]2CCC3=Cc4c(cnn4-c4ccc(F)cc4)C[C@]3(C(=O)c3cc(C(F)(F)F)ccn3)C2)n1 [Example 385, N-(2-fluoroethyl)-N-((4aS,6S)-1-(4-fluorophenyl)-4a-(4-(trifluoromethyl)picolinoyl)-4,4a,5,6,7,8-hexahydro-1H-benzo[f]indazol-6-yl)-1-methyl-1H-1,2,4-triazole-3-sulfonamide]
O=C(c1ncc(C(F)(F)F)s1)[C@]12Cc3cnn(-c4ccc(F)cc4)c3C=C1CC[C@H](N(CCF)S(=O)(=O)c1ccc(F)cc1)C2 [Example 386, 4-fluoro-N-(2-fluoroethyl)-N-((4aS,6S)-1-(4-fluorophenyl)-4a-(5-(trifluoromethyl)thiazole-2-carbonyl)-4,4a,5,6,7,8-hexahydro-1H-benzo[f]indazol-6-yl)benzenesulfonamide]
O=C(c1cc(C(F)(F)F)ccn1)[C@]12Cc3cnn(-c4ccc(F)cc4)c3C=C1CC[C@H](N(CCF)S(=O)(=O)c1ccc(F)cc1)C2 [Example 387, 4-fluoro-N-(2-fluoroethyl)-N-((4aS,6S)-1-(4-fluorophenyl)-4a-(4-(trifluoromethyl)picolinoyl)-4,4a,5,6,7,8-hexahydro-1H-benzo[f]indazol-6-yl)benzenesulfonamide]
Cn1cnc(S(=O)(=O)N(CCC#N)[C@H]2CCC3=Cc4c(cnn4-c4ccc(F)cc4)C[C@]3(C(=O)c3ncc(C(F)(F)F)s3)C2)n1 [Example 388, N-(2-cyanoethyl)-N-((4aS,6S)-1-(4-fluorophenyl)-4a-(5-(trifluoromethyl)thiazole-2-carbonyl)-4,4a,5,6,7,8-hexahydro-1H-benzo[f]indazol-6-yl)-1-methyl-1H-1,2,4-triazole-3-sulfonamide]
O=C(c1cc(F)ccn1)[C@]12Cc3cnn(-c4ccc(F)cc4)c3C=C1CC[C@H](N(CCF)S(=O)(=O)c1ccc(F)cc1)C2 [Example 389, 4-fluoro-N-(2-fluoroethyl)-N-((4aS,6S)-1-(4-fluorophenyl)-4a-(4-fluoropicolinoyl)-4,4a,5,6,7,8-hexahydro-1H-benzo[f]indazol-6-yl)benzenesulfonamide]
